Legend:
Format in all cases: cell-based, C. elegans
LGC-50 Δ363-379 = molecular target: T1, LGC-50 Δ363-379 (Caenorhabditis elegans, UniProt P41849, DEL363-379); experiment: Two-electrode voltage clamp, 5-HT evoked dose response, LGC-50 deletion mutant Δ363-379
T1 construct: Plasmid: KSM: lgc-50 (cDNA, Δ363-379); expressed in transfected cells; host or cells: Xenopus laevis oocytes injected with cRNA (plasmid pIH142)
Method: To identify such domains, we tested the effects of deletion mutations in the LGC-50 M3/4 loop (Figure 5A).
(§1) Defolliculated Xenopus laevis oocytes were obtained from EcoCyte Bioscience (Dortmund, Germany) and maintained in ND96 (in mM: 96 NaCl, 1 MgCl2, 5 HEPES, 1.8 CaCl2, 2 KCl) solution at 16°C for 3-5 days.
(§2) 5'-capped cRNA was synthesized in vitro using the T3 mMessage mMachine transcription kit according to manufacturer’s protocol (Thermo Fischer Scientific, CA, USA). RNA was then purified using the GeneJET RNA purification kit (Thermo Fischer Scientific, CA, USA) prior to cRNA injection. […]
(§3) Two-electrode voltage clamp recordings were carried out using the Robocyte2 recording system or a manual TEVC set up, using an OC-725D amplifier (Multi Channel Systems, Reutlingen, Germany) and paired with a custom-made recording chamber and agar bridges from reference and bath electrodes. […] Data was recorded using WinWCP or RoboCyte2 control software, manual data was filtered at 10 Hz.
Dose response curves were calculated from the peak current during a 10 s agonist stimulation in ND96 solution, with a 60 s ND96 wash in between doses. […] Normalized dose response data was fitted to a nonlinear curve using a four parameters variable slope and the EC50 and Hill slope was calculated. […] Kinetic measurements were calculated from a 60 s agonist perfusion. […]

LGC-54 = LGC-54 (Caenorhabditis elegans, UniProt O17041); experiment: Two-electrode voltage clamp, agonist-evoked currents in Xenopus oocytes expressing LGC-54
Chain of LGC-54 (O17041 entry or part of it): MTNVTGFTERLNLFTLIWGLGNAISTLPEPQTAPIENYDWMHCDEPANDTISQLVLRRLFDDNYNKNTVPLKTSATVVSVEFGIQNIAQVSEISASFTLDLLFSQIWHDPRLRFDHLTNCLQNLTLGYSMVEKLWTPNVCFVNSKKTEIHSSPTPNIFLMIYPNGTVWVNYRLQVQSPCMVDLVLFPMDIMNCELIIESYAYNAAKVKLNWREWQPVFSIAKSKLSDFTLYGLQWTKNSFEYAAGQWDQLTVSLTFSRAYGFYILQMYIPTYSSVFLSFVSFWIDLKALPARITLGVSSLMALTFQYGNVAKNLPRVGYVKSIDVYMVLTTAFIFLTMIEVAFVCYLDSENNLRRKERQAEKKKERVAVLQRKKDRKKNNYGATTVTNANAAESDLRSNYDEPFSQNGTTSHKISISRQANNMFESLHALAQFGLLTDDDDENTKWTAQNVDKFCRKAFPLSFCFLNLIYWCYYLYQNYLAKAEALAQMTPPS
Excerpt: (§4) We aimed to deorphanize C. elegans LGICs without known ligands, focusing on 5 genes in the putative monoamine-gated group: lgc-50; lgc-51; lgc-52; lgc-54; and lgc-56 (previously named ggr-3). Using heterologous overexpression in Xenopus oocytes and two-electrode voltage clamp recordings, we measured channel activity evoked by application of 11 monoamines and other neurotransmitters.
as §1
5'-capped cRNA was synthesized in vitro using the T3 mMessage mMachine transcription kit according to manufacturer’s protocol (Thermo Fischer Scientific, CA, USA). RNA was then purified using the GeneJET RNA purification kit (Thermo Fischer Scientific, CA, USA) prior to cRNA injection. Defolliculated Xenopus oocytes were placed individually into 96 well plates and injected with 50nL of 500ng/μL RNA using the Roboinject system (Multi Channel Systems GmbH, Reutlingen, Germany). When two constructs were injected the total RNA concentration remained 500ng/μL, with a 1:1 ratio of the components. Injected oocytes were incubated at 16°C in ND96 until the day of recording, typically between 3-5 days post injection.
Two-electrode voltage clamp recordings were carried out using the Robocyte2 recording system or a manual TEVC set up, using an OC-725D amplifier (Multi Channel Systems, Reutlingen, Germany) and paired with a custom-made recording chamber and agar bridges from reference and bath electrodes. Glass electrodes were pulled on a P-1000 Micropipette Puller (Sutter, Ca, USA) with a resistance ranging from 0.7-2 MΩ, pipettes, containing AgCl wires, were backfilled with a 3 M KCl solution for manual recordings and 1.5M KCl and 1 M acetic acid for Robocyte2 recordings. Oocytes were clamped at −60mV unless stated otherwise. Continuous recordings were taken during application of agonists and antagonists at 500 Hz. Data was recorded using WinWCP or RoboCyte2 control software, manual data was filtered at 10 Hz.
Dose response curves were calculated from the peak current during a 10 s agonist stimulation in ND96 solution, with a 60 s ND96 wash in between doses. Data was gathered over at least two occasions, using different batches of oocytes. Normalized dose response data was fitted to a nonlinear curve using a four parameters variable slope and the EC50 and Hill slope was calculated. All further recordings were carried out with the agonist at its EC50 concentration unless stated otherwise. Ion selectivity was determined using a voltage ramp protocol of 20mV/s ranging from −80mV to +60mV in the presence or absence of the primary agonist in three different solutions: ND96, NMDG (Na^+ free) and Na Gluconate (low Cl^-) solutions. Normalized ramp curves were fitted to a linear regression line and the x intercept was compared between solutions to calculate an average Erev from 4-5 oocytes. Antagonist dose response curves were calculated from the peak current during a 10 s agonist + antagonist stimulation in ND96 solution, with the agonist concentration remaining constant. Repeated agonist stimulus protocols were carried out by measuring the peak current during a 10 s agonist stimulation at three wash intervals, 10 s, 30 s and 60 s. Kinetic measurements were calculated from a 60 s agonist perfusion. Python scripts for TEVC analysis can be found at on GitHub at hiris25/TEVC-analysis-scripts and on Zenodo https://doi.org/10.5281/zenodo.5095181.
Dose response and antagonist response curves were generated using custom-built python scripts (key resources table), which combined data from multiple recordings and normalized data by calculating I/Imax for each oocyte.

LGC-50 = molecular target: T2, LGC-50 (Caenorhabditis elegans, UniProt P41849); experiment: Two-electrode voltage clamp, agonist-evoked currents in Xenopus oocytes expressing LGC-50
T2 construct: lgc-50 ORF F […]; expressed in transfected cells; host or cells: Xenopus laevis oocytes injected with cRNA (plasmid pJML002, KSM: lgc-50 cDNA)
T2 sequence (P41849 20-491): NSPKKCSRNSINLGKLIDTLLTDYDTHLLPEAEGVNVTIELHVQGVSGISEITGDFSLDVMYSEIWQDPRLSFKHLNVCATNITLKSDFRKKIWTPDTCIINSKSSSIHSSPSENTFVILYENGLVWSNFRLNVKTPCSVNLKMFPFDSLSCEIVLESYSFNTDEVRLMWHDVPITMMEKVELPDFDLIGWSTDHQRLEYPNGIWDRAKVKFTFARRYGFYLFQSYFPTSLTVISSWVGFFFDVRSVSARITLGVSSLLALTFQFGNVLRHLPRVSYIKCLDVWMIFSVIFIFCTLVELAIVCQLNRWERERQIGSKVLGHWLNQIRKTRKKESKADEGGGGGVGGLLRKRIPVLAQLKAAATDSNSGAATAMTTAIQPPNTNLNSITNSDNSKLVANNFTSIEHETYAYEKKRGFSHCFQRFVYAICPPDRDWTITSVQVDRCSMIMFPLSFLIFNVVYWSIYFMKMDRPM
Excerpt: as §4, §1, §2, §3
Dose response curves were calculated from the peak current during a 10 s agonist stimulation in ND96 solution, with a 60 s ND96 wash in between doses. […] Normalized dose response data was fitted to a nonlinear curve using a four parameters variable slope and the EC50 and Hill slope was calculated. […] Ion selectivity was determined using a voltage ramp protocol of 20mV/s ranging from −80mV to +60mV in the presence or absence of the primary agonist in three different solutions: ND96, NMDG (Na^+ free) and Na Gluconate (low Cl^-) solutions. […] Antagonist dose response curves were calculated from the peak current during a 10 s agonist + antagonist stimulation in ND96 solution, with the agonist concentration remaining constant. […] Kinetic measurements were calculated from a 60 s agonist perfusion. […]

[1] = ligands screened at 100 μM, oocytes clamped at −60 mV

T1 sequence (P41849 other isoform, or with tags, fused parts or gaps DEL363-379): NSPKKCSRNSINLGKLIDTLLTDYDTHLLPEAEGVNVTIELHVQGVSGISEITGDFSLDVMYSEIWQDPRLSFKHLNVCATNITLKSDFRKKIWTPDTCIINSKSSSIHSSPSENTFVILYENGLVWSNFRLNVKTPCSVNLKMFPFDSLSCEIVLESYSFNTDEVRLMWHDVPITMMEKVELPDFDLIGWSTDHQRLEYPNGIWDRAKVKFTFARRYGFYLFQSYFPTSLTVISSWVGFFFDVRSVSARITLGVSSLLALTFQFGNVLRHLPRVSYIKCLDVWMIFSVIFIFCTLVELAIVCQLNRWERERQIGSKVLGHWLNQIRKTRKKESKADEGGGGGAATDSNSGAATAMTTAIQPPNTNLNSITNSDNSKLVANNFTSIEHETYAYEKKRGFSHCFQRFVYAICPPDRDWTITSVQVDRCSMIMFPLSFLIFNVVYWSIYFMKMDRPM

With `NCCc1c[nH]c2ccc(O)cc12` [5-HT, serotonin] as the compound, how does the EC50 (LGC-50 Δ363-379) read?
The EC50 was 930 nM.

And the EC50 (LGC-54; Xenopus oocytes, TEVC, current normalized to Imax, Hill equation with variable slope, read-out: EC50, agonist-evoked dose response, LGC-54)?
The EC50 was 94000 nM.

What about the “Channel activation in ligand screen, LGC-54” value (LGC-54; [1]) of the same compound?
The value was “responded to 5-HT at high concentrations”.

And the EC50 (LGC-50; Xenopus oocytes, TEVC, current normalized to Imax, Hill equation with variable slope, read-out: EC50, agonist-evoked dose response, LGC-50)?
Its EC50 is 940 nM.

And the “Channel gating in ligand screen, LGC-50” value (LGC-50; [1])?
The value was “gated”.
